The test system of one assay is Malbec wine grape juice. Kind of assay: Key metabolites in wine grape juice by HPLC with UV detection (Example 2). The assay is classed as in vivo, Vitis vinifera. How it is done: 200 grapes were randomly selected from the MDJ treated group and control group of the study described above in Example 1. Samples were pooled from each group and juice was prepared for winemaking used standard practices. The juice was analyzed for several key metabolites important for wine making (Table 6). All samples were run on Agilent HPLC with UV detection for the compounds listed below. Between 50 μL-100 μL was injected into the machine per sample.

The subject of assay [1] is Botrytis cinerea. The assay can be described thus: Botrytis bunch rot percent disease incidence and severity, 2022 field trial (Example 4). The assay is classed as in vivo. How it is done: Similar to Example 3 above, additional field trials were conducted in 2022 to investigate the efficacy of MDJ in preventing bunch rot (Botrytis cinerea). The objective of this trial was to evaluate the fungicidal efficacy of MDJ at 32 oz and 48 oz/A against Botrytis cinerea on wine grapes. Serenade® Opti at 16 oz/A was included for comparative purposes. Pro 90 a NIS with anti-foaming agent was included with each treatment at 2 oz/100 gal. The trial was conducted on 21-year-old Carignane grapes (Vitis vinifera).
The first of three foliar applications was initiated June 22nd (prior to veraison) followed a month later (July 21st when fruit was at early (5 to 10%) veraison, then at 40% veraison on August 1st. Applications were made using a backpack mistblower based on a spray volume of 80 gallons per acre. As a separate control of Erysiphe necator (powdery mildew), a maintenance fungicide program of two applications in June of fenarimol (4 oz/A) followed by two applications of fenarimol+Quintec (6 oz/A) at 2 week intervals was applied.
Temperatures throughout the trial ranged from highs of 89 to 104 degrees and lows of 50 to 66 degrees F. All treatments provided good crop safety with no phytotoxicity observed. Assessments were based on visual observation of the percent disease incidence and severity at each evaluation.

The test system of assay [2] is Black seedless grapes (Vitis labrusca). The assay can be described thus: Fruit Brix and titratable acid, black seedless grapes (Example 5). The class given is in vivo. The settings on record: for Fruit BRIX / Titratable Acid, fruit: ABCDE; for Fruit BRIX: Aug. 11, 2022; for Titratable Acid, fruit: Sep. 8, 2022. How it is done:
Field trials were conducted in California 2022 (a dry year) to investigate the efficacy of MDJ in preventing Sour Rot caused by Aspergillus carbonarius (also known as summer bunch rot, abbreviated ASPECA in Table 7). Black seedless grapes (Vitis labrusca) were used in this trial. Four vines were used per plot. The plots were arranged in a randomized complete block design with six replicates (plots) per treatment. The plots were sprayed five times (ABCDE) at a rate of 500 gal/AC.
Treatments consisted of MDJ at 32 oz and 48 oz/A. A treatment of Regalia® at 1.5 qt/100 gal and Stargus® at 2 qt/100 gal was included for comparative purposes. Application D occurred at 5-10% veraison. Application E occurred at 40% veraison.
A randomly selected sample of approximately twenty wine grapes was used to evaluate the Brix and titratable acid. Another randomly selected sample (>500 g) was shipped to ETS Laboratories (Paso Robles, CA) for a red grape panel analysis (catechin, quercetin glycosides, tannin, polymeric anthocyanins, total anthocyanins, catechin/tannin index, and polymeric anthocyanins/tannin index). […] Total anthocyanins increased over 17% (449.1 in untreated controls compared to 529.3 in the group treated with 48 oz/A MDJ). An increase in quercetin glycosides, tannin, and polymeric anthocyanins, was also observed in MDJ treated plants (Table 8), as well as titratable acid (Table 9).

In assay [3] the test system is Botrytis cinerea. Kind of assay: Laccase analysis for prevalence of Botrytis, 2021 field trial (Example 3). The assay is classed as in vivo. The settings on record: cabernet sauvignon; approx. 5 mM MDJ at 50 gal/acre, four applications. How it is done: MDJ was applied to fields of grape to investigate the efficacy of MDJ in preventing bunch rot on (Botrytis cinerea) and powdery mildew (Erysiphe necator) on grapes. […] (1 liter) per 50 gallons of water (approximately a 5 mM solution of MDJ). The composition was then applied (at a rate of 50 gallons per acre) to three acres (1245 vines/acre) of a cabernet sauvignon variety grown in Napa Valley, CA. There was a total of four applications between June and September using a ground spray rig. To investigate the prevalence of Botrytis, the enzyme laccase was analyzed. Laccase can negatively impact wine by causing premature browning of bottled white wine and color degradation in red wine. The MDJ treated group had 2 units/ml, whereas the control (grower standard) had 5 units/ml. This level in the control group means that Botrytis problems can be expected during the wine making process, whereas in the MDJ treated group, the value of 2 units/ml means there will be no issues with Botrytis during the wine making process.

Setting [4] is: Malbec MDJ treated (2.5 mM, Example 1 trial), pooled 200 grapes.

Regarding `CCCCCC1C(=O)CCC1CC(=O)OC` (stereo not drawn) [MDJ, methyl dihydrojasmonate], in the assay on Malbec wine grape juice (setting [4]), the “Catechin in wine grape juice” value is recorded as 28 mg/L, the “Polymeric anthocyanins in wine grape juice” value is listed as 24 mg/L, the “Quercetin glycosides in wine grape juice” value is 23 mg/L and the “Tannin in wine grape juice” value came out at 393 mg/L. For the same compound, the “Total anthocyanins in wine grape juice” value in the assay with Malbec wine grape juice (setting [4]) is 1697 mg/L. For the same compound, the “Increase of total anthocyanins vs control” value with Malbec wine grape juice (Malbec wine grape juice, MDJ treatment group) was “approximately 8%”. The “Color of grape wine juice vs control group” value in the assay on Malbec wine grape juice (Malbec, MDJ treatment group, FIG. 2) is “richer, darker red color”. In addition, in the assay on Botrytis cinerea [1] (Carignane wine grapes, higher rate of MDJ (48 oz/A)), the “Control of Botrytis incidence and severity, higher vs lower rate” value was “numerically better control of Botrytis incidence and severity”. Further, the “B. cinerea suppression (disease incidence) vs untreated grapes” value in the assay with Botrytis cinerea [1] (MDJ Elicitor at both rates (32 and 48 oz/A), 26DAC, 20 bunches per plot) is listed as “significantly better B. cinerea suppression”. Further, the “Control of Botrytis, higher vs lower rate” value in the assay with Botrytis cinerea [1] (higher rate of MDJ (48 oz/A), 7 and 14 days after the third treatment (7 and 14DAC)) was “significantly better control”. In addition, in the assay on Botrytis cinerea [1] (low rate of MDJ (32 oz/A), 26DAC), the “Control of Botrytis incidence compared to the Serenade Opti standard” value is given as “significantly better control of Botrytis incidence”. Further, in assay [2] (32 oz/a), the “Fruit BRIX” value was 19.080— % and the “Titratable Acid, fruit” value is 5.83— g/L. For the same compound, in assay [2] (48 oz/a), the “Fruit BRIX” value was 19.560— % and the “Titratable Acid, fruit” value is 6.67— g/L. For the same compound, in assay [2] (MDJ treated plants), the “Fruit Brix vs untreated” value was “increase” and the “Titratable acid vs untreated” value is “increase”. The Laccase in the assay with Botrytis cinerea [3] came to 2 units/ml.

The record behind these values is US20250120399A1, “METHODS AND COMPOSITIONS FOR ALTERING METABOLITES IN VITIS SPP. AND PREVENTING PESTS AND PATHOGENS” (Impello Biosciences, Inc., priority 2022, published 2025).
